{
  "source": "patent US9744175B2",
  "about": "“Compositions of combinations of non-covalent DNA binding agents and anti-cancer and/or anti-inflammatory agents and their use in disease treatment” (INDUS PHARMACEUTICALS, INC., priority 2012, dated 2017)",
  "key": {"[1]": {"system": "HCT116 (mlh−)", "test": "siRNA inhibition of p53 and REV functions, alamar blue growth inhibition", "assay_type": "cell-based, human", "procedure": "(§1) siRNA specific for different genes is purchased from Dharmacon (Thermo. Fisher Scientific Dharmacon Products, Lafayette, Colo. 80026) and the protocol recommended by the supplier is utilized. Confluent cells are trypsinized and 5000 cells are seeded in a well in the presence or absence of siRNA in 100 μL medium. The cells are incubated with siRNA for two days. A non-covalent DNA binding agent of the invention is added in a 10 μL volume and incubated for another 48 hours. After treatment with the agent, the medium is replaced with 1% alamar blue containing medium to measure fluorescence after two hours.\nas §1, with “from Dharmacon (Thermo Fisher Scientific” for “from Dharmacon (Thermo. Fisher Scientific”, “two hours. […] The results are presented in FIGS. 14-18 (SEQ ID NO:3-12, respectively) and Table 7.” for “two hours.”"}, "[2]": {"system": "U2OS Wild type", "test": "siRNA inhibition of MMR, p53 and REV functions, alamar blue growth inhibition", "assay_type": "cell-based, human", "procedure": "as §1\nas §1, with “from Dharmacon (Thermo Fisher Scientific” for “from Dharmacon (Thermo. Fisher Scientific”, “two hours. […] The results are presented in FIGS. 14-18 (SEQ ID NO:3-12, respectively) and Table 7.” for “two hours.”"}, "[3]": {"system": "Wild type yeast", "test": "Alamar Blue cell survival assay in yeast cells", "assay_type": "cell-based", "procedure": "(§2) The cells are diluted 100-fold in yeast complete medium. 100 μL of diluted cells are seeded in 96 well plates with or without a non-covalent DNA binding compound and incubated for 24 hours at 30° C. The following day, an equal volume of yeast complete medium containing 1% alamar blue is added and incubated at 30° C. for two hours. Fluorescence intensity is measured in a fluorescent reader to calculate the inhibition effect of non-covalent DNA binding agents in mutant and wild type yeast cells.\n(§3) Yeast cells that carry mutations in different genes involved in homologous recombination (rad 50, rad51, rad52, and rad57) and nucleotide excision/double strand repair (rad1) are grown to stationary culture overnight."}, "[4]": {"system": "yeast rad1 mutation", "test": "Alamar Blue cell survival assay in yeast cells", "assay_type": "cell-based", "procedure": "as §2, §3"}, "[5]": {"system": "yeast rad51 mutation", "test": "Alamar Blue cell survival assay in yeast cells", "assay_type": "cell-based", "procedure": "as §2, §3"}, "[6]": {"system": "yeast rad52 mutation", "test": "Alamar Blue cell survival assay in yeast cells", "assay_type": "cell-based", "procedure": "as §2, §3"}, "[7]": {"system": "yeast rad50 mutation", "test": "Alamar Blue cell survival assay in yeast cells", "assay_type": "cell-based", "procedure": "as §2, §3"}},
  "note": "pIC50: −log10 of the molar value.",
  "data": [
    {"smiles": "CC[C@@]1(O)C(=O)OCc2c1cc1n(c2=O)Cc2cc3ccccc3nc2-1", "note": "[Camptothecin, (S)-4-ethyl-4-hydroxy-1H-pyrano[3′,4′:6,7]indolizino[1,2-b]quinoline-3,14-(4H,12H)-dione, reference compound]", "values": [
      {"measurement": "pIC50", "setting": "[1]; Homo sapiens, HCT-116, no siRNA knock out, read-out: IC50, Control", "value": 6.60},
      {"measurement": "Fold improvement in IC50, p53", "setting": "[1]; p53 siRNA vs control", "value": 1.3, "unit": "fold"},
      {"measurement": "Fold improvement in IC50, rev", "setting": "[1]; rev siRNA vs control", "value": 1.7, "unit": "fold"}
    ]},
    {"smiles": "COc1cccc2c1C(=O)c1c(O)c3c(c(O)c1C2=O)C[C@@](O)(C(=O)CO)C[C@@H]3OC1CC(N)C(O)C(C)O1", "note": "(stereo partly drawn) [Doxorubicin, (8S,10S)-10-(4-amino-5-hydroxy-6-methyl-tetrahydro-2H-pyran-2-yloxy)-6,8,11-trihydroxy-8-(2-hydroxyacetyl)-1-methoxy-7,8,9,10-tetrahydrotetracene-5,12-dione, reference compound]", "values": [
      {"measurement": "pIC50", "setting": "[2]; Homo sapiens, no siRNA knock out, read-out: IC50, Control", "value": 6.15},
      {"measurement": "Fold improvement in IC50, mlh1", "setting": "[2]; mlh1 siRNA vs control", "value": 0.23, "unit": "fold"},
      {"measurement": "Fold improvement in IC50, p53", "setting": "[2]; p53 siRNA vs control", "value": 0.7, "unit": "fold"},
      {"measurement": "Fold improvement in IC50, rev", "setting": "[2]; rev siRNA vs control", "value": 0.35, "unit": "fold"}
    ]},
    {"smiles": "COc1cc2c(cc1OCCCCOc1cc(-c3ccc(F)cc3)nc(C)n1)N=C[C@@H]1CCCN1C2=O", "note": "[NSC 723732]", "values": [
      {"measurement": "pIC50", "setting": "[3]", "value": "< 3.60"},
      {"measurement": "pIC50", "setting": "[4]", "value": "< 3.60"},
      {"measurement": "pIC50", "setting": "[5]", "value": 4.00},
      {"measurement": "pIC50", "setting": "[6]", "value": 3.98},
      {"measurement": "pIC50", "setting": "[7]", "value": "< 3.60"}
    ]}
  ]
}
